Patent US20130065226A1, “METHOD OF DETERMINING DOSE AND ADMINISTRATION OF STATIN” (TOHOKU UNIVERSITY, priority 2011, published 2013)
Read-outs that look alike come from different tables or passages of the source. Where a SMILES comes first, the peptide text is derived from it. The star is where a group is joined. Cbz = O=C(OCc1ccccc1)*

How the values were obtained:
SmgGDS [1] = assay: SmgGDS expression in HUVEC after 24 h drug treatment (western blot); format: cell-based, human; details: for inhibition of the statin-induced increase in SmgGDS expression level: FPP or GGPP 10 μM co-treated with atorvastatin or pitavastatin, 24 h; for SmgGDS expression level in HUVEC: 24 h treatment, atorvastatin 10 and 30 μM, pitavastatin 1 and 10 μM
Racl [2] = assay: Protein expression in HUVEC subcellular fractions: Racl (with or without proteasome inhibitor MG-132)
SmgGDS [3] = assay: Protein expression in HUVEC subcellular fractions: SmgGDS; format: cell-based, human; details: HUVEC cytoplasm fraction, 24 h; atorvastatin 10 μM, pitavastatin 1 μM
Racl [4] = assay: Racl expression in control or SmgGDS siRNA-transfected HUVEC; format: cell-based, human; details: control siRNA-transfected HUVEC, statin 24 h
Protocol: (§1) An AngII-induced cardiovascular hypertrophy model in mice was produced according to Yagi et al.'s literature (Yagi, S. et al., Circ. Res. 102, 68-76 (2008)). Statins were administered to mice by gavage every day for 2 weeks. After 2 weeks of sustained AngII administration by means of osmotic pump, the present inventors observed the left ventricular function and measured the weight of the heart of each mouse by means of an ultrasound imaging system. […] After a 2 weeks washout period, the subjects were switched to take an alternative medicine for additional 2 weeks.
(§2) Multiple siRNAs duplexes specific to SmgGDS were purchased from Qiagen. A functional non-targeting siRNA that was bioinformatically designed by Qiagen was used as a control. Either 10 nM control siRNA or 10 nM siRNA that was specific to SmgGDS was transfected into HUVEC with HiPerFect transfection Reagent (Qiagen). After 72 hour post-transfection, the cells were analyzed by either Wester blot or ROS analysis.

[5] = test system: AngII-induced production of ROS in HUVEC; assay: Reactive oxygen species analysis (DCF staining) in siRNA-transfected HUVEC; format: cell-based, human; details: atorvastatin 1 μM or pitavastatin 0.1 μM 24 h, then 1 μM AngII 3 h
Protocol: as §1, §2
The present inventors treated HUVEC with AngII (1μM, Wako) at 37° C. in 5% CO2 for 3 hours, washed them with PBS and stained them with 2,7-dichlorofluoroscein diacetate (H2DCF-DA) (5 μM, Cayman) at 37° C. for 30 minutes to visualize the ROS production as green fluorescence (488 nm) through a fluorescence microscope (BIOREVO, Keyence). The relative fluorescence intensity was measured by means of BZ-II analyzer (Keyence) software.

[6] = Body weight, blood pressure and plasma lipid profiles in AngII-infused mice; format: in vivo; details: ATOR 10 mpk, PRA 50 mpk; for Systolic blood pressure / HDL cholesterol / LDL-cholesterol / Total cholesterol / Triglyceride: 2 weeks; for Systolic blood pressure / Body weight: mean ± s.e.m.; for Body weight: gavage daily 2 weeks; for HDL cholesterol / LDL-cholesterol / Total cholesterol / Triglyceride: plasma
Protocol: as §1
The present inventors conducted all mouse experiments in accordance with experimental protocols that were approved by the Animal Care and Use Committee of the Tohoku University Graduate School of Medicine. The present inventors used an AngII-induced cardiovascular hypertrophy model (see Yagi, S . et al . , Circ. Res. 102. 68-76 (2008)) to assess the effect of SmgGDS deficiency on the pleiotropic effects of low-dose statins. The present inventors infused 2.0 mg kg^−1 day^−1 or saline for 2 weeks in 10-week-old male SmgGDS^+/+ littermate control mice and SmgGDS^+/− mice. The inventors dissolved AngII in sterile saline and infused it via osmotic mini-pumps (Alzet model 2002, Alze Corp.). The inventors anesthetized the animals with isofluorane. Then, the inventors prepared subcutaneous pockets in the isofluorane-anesthetized mice and placed the pumps into the subcutaneous pockets through a small incision in the back that was closed by suturing. Either statin or vehicle was administered to both the AngII-infused and saline-infused mouse by gavage every day for 2 weeks . All incision sites rapidly healed without any infection. Systolic blood pressure was measured by using a non-invasive tail-cuff system (MK-2000, Muromachi) 2 weeks after the pump implantation. Plasma lipids (triglycerides, total cholesterol, LDL-cholesterol and HDL-cholesterol) were analyzed with the high-performance liquid chromatography system of Skylight Biotech. Echocardiographic analysis was performed by using an ultrasound imaging system (Vevo 2100, VisualSonic Inc.). The mice were shaved and M-mode images of the left ventricle were recorded while the heart rate was kept at about 500 bpm.

[7] = Human study: plasma lipid profiles, glucose, insulin and HOMA-IR; format: in vivo; details: for HDL-cholesterol, Change (%) / LDL-cholesterol, Change (%) / MDA-LDL, Change (%) / RLP cholesterol, Change (%) / Total cholesterol, Change (%) / Triglyceride, Change (%) / HDL-cholesterol, After 2 weeks / LDL-cholesterol, After 2 weeks / MDA-LDL, After 2 weeks / RLP cholesterol, After 2 weeks / Triglyceride, After 2 weeks / Total cholesterol, After 2 weeks: healthy volunteers; for HDL-cholesterol, Change (%) / LDL-cholesterol, Change (%) / MDA-LDL, Change (%) / RLP cholesterol, Change (%) / Total cholesterol, Change (%) / Triglyceride, Change (%): 20 mg day^−1, after 2 weeks vs baseline; for HDL-cholesterol, After 2 weeks / LDL-cholesterol, After 2 weeks / MDA-LDL, After 2 weeks / RLP cholesterol, After 2 weeks / Triglyceride, After 2 weeks / Total cholesterol, After 2 weeks: fasting; for Total cholesterol, After 2 weeks: mean ± s.e.m., n = 20
Excerpt: (§3) The exclusion criteria included abnormal liver or kidney dysfunction before and during the statin administration and treatment.

SmgGDS [8] = assay: Human study: SmgGDS expression in circulating leukocytes (western blot); format: in vivo; details: for increase of SmgGDS in leukocytes, average of the 20 volunteers: 20 mg, 2 weeks, vs before administration
Excerpt: as §3

Racl [9] = details: normal and healthy volunteers, 20 mg day^−1 for 1 week; cited from earlier work
RhoA/Rho-kinase = details: normal and healthy volunteers, 20 mg day^−1 for 1 week; cited from earlier work
[10] = Plasma concentration of statins in mice; format: in vivo; details: male, mouse, oral, 24 hours after last of 2-week gavage, atorvastatin 10 mg/kg/day, pravastatin 50 mg/kg/day, read-out: Plasma concentration of statin
Protocol: Furthermore, the present inventors administrated each statin by gavage for 2 weeks from the start of AngII administration ([…], 10 mg/kg/day or pravastatin, 50 mg/kg/day) to the each group of mouse. The present inventors measured plasma concentration of statins 24 hours after the last administration (Table 3).

[11] = control siRNA-transfected HUVEC

CC(C)=CCC/C(C)=C/CC/C(C)=C/COP(=O)(O)OP(=O)(O)O [FPP, farnesyl pyrophosphate]
inhibition of the statin-induced increase in SmgGDS expression level (SmgGDS [1]): neither FPP nor GGPP inhibited the increase in SmgGDS expression level by statins

CC(C)=CCC/C(C)=C/CC/C(C)=C/CC/C(C)=C/COP(=O)(O)OP(=O)(O)O [GGPP, geranylgeranyl pyrophosphate]
inhibition of the statin-induced increase in SmgGDS expression level (SmgGDS [1]): neither FPP nor GGPP inhibited the increase in SmgGDS expression level by statins

O=c1[nH]ccc2c(S(=O)(=O)N3CCCNCC3)cccc12 [HF, hydroxyfasudil]
SmgGDS expression level in HUVEC (SmgGDS [1]): did not increase the SmgGDS expression level

CC(C)C[C@@H](C=O)NC(=O)[C@H](CC(C)C)NC(=O)[C@H](CC(C)C)NC(=O)OCc1ccccc1 [MG-132] (Cbz-Leu-Leu-Leu-aldehyde)
effect of MG-132 on statin-triggered decrease of Racl expression in the nucleus (Racl [2]; HUVEC co-treated with atorvastatin and MG-132): inhibited the decreased Racl expression level triggered by atorvastatin in the nucleus

Cn1cc(C2=C(c3ccc(Cl)cc3Cl)C(=O)NC2=O)c2ccccc21 [SB216763]
SmgGDS expression level in HUVEC (SmgGDS [1]): increased the SmgGDS expression level in a concentration-dependent manner

CC(C)c1c(C(=O)Nc2ccccc2)c(-c2ccccc2)c(-c2ccc(F)cc2)n1CC[C@@H](O)C[C@@H](O)CC(=O)O [atorvastatin]
SmgGDS expression level in HUVEC (SmgGDS [1]): increased SmgGDS expression in HUVEC in a concentration-dependent manner
cytoplasmic SmgGDS level (SmgGDS [3]): increased the cytoplasmic SmgGDS level
Racl expression level in whole cells (Racl [4]): decreased Racl expression level in whole cells
AngII-induced production of ROS [5, 11]: decreased the AngII-induced production of ROS
Systolic blood pressure ([6]; AngII-infused SmgGDS+/+ mice): 146.7 ± 7.6 mmHg
Body weight ([6]; AngII-infused SmgGDS+/+ mice): 27.5 ± 1.1 g
Systolic blood pressure ([6]; AngII-infused SmgGDS+/− mice): 140.4 ± 4.4 mmHg
Body weight ([6]; AngII-infused SmgGDS+/− mice): 26.9 ± 0.5 g
HDL cholesterol ([6]; AngII-infused SmgGDS+/+ mice): 76.3 ± 6.8 mg/dL
LDL-cholesterol ([6]; AngII-infused SmgGDS+/+ mice): 13.7 ± 1.6 mg/dL
Total cholesterol ([6]; AngII-infused SmgGDS+/+ mice): 98.3 ± 7.7 mg/dL
Triglyceride ([6]; AngII-infused SmgGDS+/+ mice): 67.0 ± 11.0 mg/dL
HDL cholesterol ([6]; AngII-infused SmgGDS+/− mice): 81.9 ± 4.8 mg/dL
LDL-cholesterol ([6]; AngII-infused SmgGDS+/− mice): 13.6 ± 1.8 mg/dL
Total cholesterol ([6]; AngII-infused SmgGDS+/− mice): 102.3 ± 6.9 mg/dL
Triglyceride ([6]; AngII-infused SmgGDS+/− mice): 81.4 ± 20.1 mg/dL
HDL-cholesterol, Change (%) [7]: 0%
LDL-cholesterol, Change (%) [7]: −46%
MDA-LDL, Change (%) [7]: −38%
RLP cholesterol, Change (%) [7]: −35%
Total cholesterol, Change (%) [7]: −30%
Triglyceride, Change (%) [7]: −33%
HDL-cholesterol, After 2 weeks ([7]; 20 mg day^−1 oral, 2 weeks): 60 ± 2.7 mg/dL
LDL-cholesterol, After 2 weeks ([7]; 20 mg day^−1 oral, 2 weeks): 64 ± 3.4 mg/dL
MDA-LDL, After 2 weeks ([7]; 20 mg day^−1 oral, 2 weeks): 73 ± 4.5 U l^−1
RLP cholesterol, After 2 weeks ([7]; 20 mg day^−1 oral, 2 weeks): 2.6 ± 0.1 mg/dL
Triglyceride, After 2 weeks ([7]; 20 mg day^−1 oral, 2 weeks): 73 ± 6.5 mg/dL
Total cholesterol, After 2 weeks ([7]; 20 mg day^−1 oral, 2 weeks): 138 ± 3.8 mg/dL
concentration level of total cholesterol and of LDL-cholesterol in blood ([7]; normal healthy adult volunteers, 20 mg day^−1 oral, 2 weeks): reduced the concentration level of total cholesterol and that of LDL-cholesterol in blood
SmgGDS expression in leukocytes in circulating blood (SmgGDS [8]; healthy volunteers, 20 mg day^−1, 2 weeks, vs pre-administration level, n=20): significantly increased
increase of SmgGDS in leukocytes, average of the 20 volunteers (SmgGDS [8]; healthy volunteers): about 1.5 times
increase in SmgGDS (SmgGDS [8]; the 4 volunteers without increase at 10 mg pravastatin, after switching from pravastatin to atorvastatin): 3 volunteers out of the above 4 volunteers showed an increase of SmgGDS
Racl activity in circulating leucocytes (Racl [9]): significantly inhibit Racl activity
RhoA/Rho-kinase activity in circulating leucocytes (RhoA/Rho-kinase): without suppressing the RhoA/Rho-kinase activity

O=C(O)C[C@H](O)C[C@H](O)/C=C/c1c(C2CC2)nc2ccccc2c1-c1ccc(F)cc1 [pitavastatin]
SmgGDS expression level in HUVEC (SmgGDS [1]): increased SmgGDS expression in HUVEC in a concentration-dependent manner
cytoplasmic SmgGDS level (SmgGDS [3]): increased the cytoplasmic SmgGDS level
AngII-induced production of ROS ([5]; SmgGDS siRNA-transfected HUVEC): The same results were also obtained
AngII-induced production of ROS [5, 11]: The same results were also obtained
intra-nuclear Racl level (Racl [2]; HUVEC nucleus fraction, 24 h, atorvastatin 10 μM, pitavastatin 1 μM): decreased the intra-nuclear Racl level

CC[C@H](C)C(=O)O[C@H]1C[C@H](O)C=C2C=C[C@H](C)[C@H](CC[C@@H](O)C[C@@H](O)CC(=O)O)[C@H]21 [pravastatin]
Systolic blood pressure ([6]; AngII-infused SmgGDS+/+ mice): 141.0 ± 7.3 mmHg
Systolic blood pressure ([6]; AngII-infused SmgGDS+/− mice): 146.7 ± 6.6 mmHg
HDL cholesterol ([6]; AngII-infused SmgGDS+/+ mice): 88.0 ± 4.5 mg/dL
LDL-cholesterol ([6]; AngII-infused SmgGDS+/+ mice): 16.1 ± 2.3 mg/dL
Total cholesterol ([6]; AngII-infused SmgGDS+/+ mice): 111.2 ± 6.8 mg/dL
Triglyceride ([6]; AngII-infused SmgGDS+/+ mice): 47.3 ± 10.9 mg/dL
HDL cholesterol ([6]; AngII-infused SmgGDS+/− mice): 94.0 ± 4.1 mg/dL
LDL-cholesterol ([6]; AngII-infused SmgGDS+/− mice): 16.1 ± 1.6 mg/dL
Total cholesterol ([6]; AngII-infused SmgGDS+/− mice): 116.7 ± 5.7 mg/dL
Triglyceride ([6]; AngII-infused SmgGDS+/− mice): 56.6 ± 7.3 mg/dL
concentration at 24 h ([10]; AngII-infused SmgGDS+/+ mice): 0.43 ± 0.08 ng/mL
concentration at 24 h ([10]; AngII-infused SmgGDS+/− mice): 0.64 ± 0.24 ng/mL
HDL-cholesterol, Change (%) [7]: 5%
LDL-cholesterol, Change (%) [7]: −24%
MDA-LDL, Change (%) [7]: −25%
RLP cholesterol, Change (%) [7]: −22%
Total cholesterol, Change (%) [7]: −14%
Triglyceride, Change (%) [7]: −16%
HDL-cholesterol, After 2 weeks ([7]; 20 mg day^−1 oral, 2 weeks): 61 ± 2.8 mg/dL
LDL-cholesterol, After 2 weeks ([7]; 20 mg day^−1 oral, 2 weeks): 88 ± 4.0 mg/dL
MDA-LDL, After 2 weeks ([7]; 20 mg day^−1 oral, 2 weeks): 85 ± 6.7 U l^−1
RLP cholesterol, After 2 weeks ([7]; 20 mg day^−1 oral, 2 weeks): 3.2 ± 0.3 mg/dL
Triglyceride, After 2 weeks ([7]; 20 mg day^−1 oral, 2 weeks): 87 ± 9.1 mg/dL
Total cholesterol, After 2 weeks ([7]; 20 mg day^−1 oral, 2 weeks): 165 ± 4.5 mg/dL
increase of SmgGDS in leukocytes, average of the 20 volunteers (SmgGDS [8]; healthy volunteers): about 1.4 times
